Molecules are shown by their SMILES. Some results are limits rather than exact numbers.

The target in this test is T1, CYP2C9 (Homo sapiens, UniProt P11712).
T1 construct: Human liver microsome (20 mg protein/mL, 5 μL, Xenotech LLC, purchased from Lenexa KS); tissue Xenotech LLC; host or cells: human liver microsome
T1 sequence (P11712 whole entry): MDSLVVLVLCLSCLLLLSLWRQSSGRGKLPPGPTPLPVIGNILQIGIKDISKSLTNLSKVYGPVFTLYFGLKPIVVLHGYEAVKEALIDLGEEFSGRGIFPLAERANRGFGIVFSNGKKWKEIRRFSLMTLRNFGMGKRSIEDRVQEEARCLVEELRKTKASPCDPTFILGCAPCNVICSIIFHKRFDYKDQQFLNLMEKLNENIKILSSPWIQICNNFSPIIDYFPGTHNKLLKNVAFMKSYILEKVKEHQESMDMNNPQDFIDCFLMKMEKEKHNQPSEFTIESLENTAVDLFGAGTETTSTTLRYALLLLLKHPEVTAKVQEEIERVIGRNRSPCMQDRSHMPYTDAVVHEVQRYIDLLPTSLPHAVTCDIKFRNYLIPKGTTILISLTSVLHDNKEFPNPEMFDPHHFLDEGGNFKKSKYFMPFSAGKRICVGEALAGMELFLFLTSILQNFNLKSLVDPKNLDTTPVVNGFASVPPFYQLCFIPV
As to the kind of experiment: CYP inhibitory test using human liver microsome. In kind it is in vitro ADME. The settings on record: model substrate diclofenac, 37° C. 10 min, read-out: CYP2C9 inhibition IC50. Here is the method:
Human liver microsome (20 mg protein/mL, 5 μL, Xenotech LLC, purchased from Lenexa KS) was suspended in 100 mM potassium phosphate buffer (70 μL, pH 7.4), mixed with a solution (0.5 μL) of the Example compound dissolved in DMSO and preincubated at 37° C. for 5 min. NADPH producing system coenzyme solution (β-nicotinamide adenine dinucleotide phosphate: 5.2 mM, D-glucose-6-phosphate: 13.2 mM, magnesium chloride: 13.2 mM, glucose-6-phosphate dehydrogenase: 1.8 U/mL) 25 μL, and a model substrate (CYP3A4: midazolam 1 mM, CYP2D6: bufuralol 1 mM, CYP2C9: diclofenac 2 mM) 0.5 μL dissolved in DMSO were added to start the reaction. After incubation at 37° C. for 10 min., acetonitrile (200 μL) containing an internal standard substance (propranolol 1 μM) was added and the mixture was centrifuged (room temperature, 3000 rpm, 20 min). The amount of the metabolite produced from each model substrate in the supernatant was measured by high performance liquid chromatography/mass spectrometry (LC/MS/MS) and each CYP enzyme activity was determined. The concentration showing 50% inhibition (IC50) was calculated relative to the enzyme activity without addition of Example compound (DMSO 0.5 μL added) as 100%.
Background: Liver microsomes are a subcellular fraction often used to study metabolism.
On to `O=C(c1cc(Cl)c(O)c(Cl)c1)N1CCCOc2ccccc21` [Example 95, (3,5-dichloro-4-hydroxyphenyl)-(7,8-dihydro-6H-5-oxa-9-azabenzocyclohepten-9-yl)-methanone], for which the IC50 (as a rule, the concentration needed to halve the response being measured) is greater than 50 µM.
Under `O=C(c1cc(Br)c(O)c(Br)c1)N1CCOc2ccc(Cl)cc21` [Example 82, (6-chloro-2,3-dihydrobenzo[1,4]oxazin-4-yl)-(3,5-dibromo-4-hydroxyphenyl)-methanone] stands 11 µM; under `Nc1ccc2c(c1)N(C(=O)c1cc(Cl)c(O)c(Cl)c1)CCO2` [Example 68, (6-amino-2,3-dihydrobenzo[1,4]oxazin-4-yl)-(3,5-dichloro-4-hydroxyphenyl)-methanone], 27 µM; under `O=C(c1cc(Cl)c(O)c(Cl)c1)N1CCOc2ccccc21` [Example 3, (3,5-dichloro-4-hydroxyphenyl)-(2,3-dihydrobenzo[1,4]oxazin-4-yl)-methanone], 27 µM.
With `O=C(c1cc(Cl)c(O)c(Cl)c1)N1c2ccccc2Oc2ccccc21` [Example 64, (3,5-dichloro-4-hydroxyphenyl)-phenoxazin-10-ylmethanone], the IC50 was 6 µM.
Under `COc1ccc2c(c1)OCCN2C(=O)c1cc(Cl)c(O)c(Cl)c1` [Example 18, (3,5-dichloro-4-hydroxyphenyl)-(7-methoxy-2,3-dihydrobenzo[1,4]oxazin-4-yl)-methanone] stands 9 µM; under `O=C(c1cc(Br)c(O)c(Br)c1)N1CCOc2ccccc21` [Example 4, (3,5-dibromo-4-hydroxyphenyl)-(2,3-dihydrobenzo[1,4]oxazin-4-yl)-methanone], 9 µM.
The value for `O=C(c1cc(Cl)c(O)c(Cl)c1)N1CCOc2ccc([N+](=O)[O-])cc21` [Example 67, (3,5-dichloro-4-hydroxyphenyl)-(6-nitro-2,3-dihydrobenzo[1,4]oxazin-4-yl)-methanone] was 49 µM.
Under `Cc1cc(C)c2c(c1)N(C(=O)c1cc(Cl)c(O)c(Cl)c1)CCO2` [Example 66, (3,5-dichloro-4-hydroxyphenyl)-(6,8-dimethyl-2,3-dihydrobenzo[1,4]oxazin-4-yl)-methanone] stands 12 µM; under `O=C(c1cc(I)c(O)c(I)c1)N1CCOc2ccccc21` [Example 5, (2,3-dihydrobenzo[1,4]oxazin-4-yl)-(4-hydroxy-3,5-diiodophenyl)-methanone], 2 µM.
As to `O=C(c1cc(Cl)c(O)c(Cl)c1)N1CCOc2ccc(O)cc21` [Example 19, (3,5-dichloro-4-hydroxyphenyl)-(6-hydroxy-2,3-dihydrobenzo[1,4]oxazin-4-yl)-methanone], the 50% inhibitory concentration (IC50) was greater than 50 µM.
The value for `O=C1CCN(C(=O)c2cc(Cl)c(O)c(Cl)c2)c2ccccc2N1` [Example 37, 5-(3,5-dichloro-4-hydroxybenzoyl)-1,3,4,5-tetrahydrobenzo[b][1,4]diazepin-2-one] was greater than 50 µM; that for `O=C(c1cc(Cl)nc(Cl)c1)N1CCOc2ccccc21` [Example 42, (2,6-dichloropyridin-4-yl)-(2,3-dihydrobenzo[1,4]oxazin-4-yl)-methanone] was greater than 50 µM.
Under `O=C(c1cc(Cl)c(O)c(Cl)c1)N1CCOc2ccc(-c3ccccc3)cc21` [Example 65, (3,5-dichloro-4-hydroxyphenyl)-(6-phenyl-2,3-dihydrobenzo[1,4]oxazin-4-yl)-methanone] stands 14 µM; under `O=C(c1ccc(O)c(Cl)c1)N1CCOc2ccccc21` [Example 1, (3-chloro-4-hydroxyphenyl)-(2,3-dihydrobenzo[1,4]oxazin-4-yl)-methanone], greater than 50 µM; under `COC(=O)c1ccc2c(c1)N(C(=O)c1cc(Cl)c(O)c(Cl)c1)CCO2` [Example 55, methyl 4-(3,5-dichloro-4-hydroxybenzoyl)-3,4-dihydro-2H-benzo[1,4]oxazine-6-carboxylate], 19 µM.
As for `O=C(c1cc(Cl)cc(Cl)c1)N1CCOc2ccccc21` [Example 63, (3,5-dichlorophenyl)-(2,3-dihydrobenzo[1,4]oxazin-4-yl)-methanone], the IC50 is greater than 50 µM.
Under `O=C(c1cc(Cl)c(O)c(Cl)c1)N1CCOc2ccc(C(F)(F)F)cc21` [Example 85, (3,5-dichloro-4-hydroxyphenyl)-(6-trifluoromethyl-2,3-dihydrobenzo[1,4]oxazin-4-yl)-methanone] stands 19 µM.
Consider `Cc1cc(C(=O)N2CCOc3ccccc32)cc(C)c1O` [Example 7, (2,3-dihydrobenzo[1,4]oxazin-4-yl)-(4-hydroxy-3,5-dimethylphenyl)-methanone], for which the IC50 stood at 4 µM.
On to `O=C(c1ccc([N+](=O)[O-])cc1)N1CCOc2ccccc21` [Example 43, (2,3-dihydrobenzo[1,4]oxazin-4-yl)-(4-nitrophenyl)-methanone], for which the IC50 was greater than 50 µM.
On to `O=C(c1cc(Cl)c(O)c(Cl)c1)N1CCCc2ccccc21` [Example 26, (3,5-dichloro-4-hydroxyphenyl)-(3,4-dihydro-2H-quinolin-1-yl)-methanone], for which the half-maximal inhibitory concentration (IC50) came out at 13 µM.
For the compound `O=C(c1cc(Cl)c(O)c(Cl)c1)N1CCc2ccccc21` [Example 77, (3,5-dichloro-4-hydroxyphenyl)-(2,3-dihydroindol-1-yl)-methanone], the IC50 was found to be 18 µM.
The value for `O=C(c1ccc(O)c([N+](=O)[O-])c1)N1CCOc2ccccc21` [Example 75, (2,3-dihydrobenzo[1,4]oxazin-4-yl)-(4-hydroxy-3-nitrophenyl)-methanone] was greater than 50 µM; that for `O=C(c1cc(Cl)c(O)c(Cl)c1)N1CCOc2cccnc21` [Example 36, (3,5-dichloro-4-hydroxyphenyl)-(2,3-dihydropyrido[3,2-b][1,4]oxazin-4-yl)-methanone] was 16 µM; that for `O=C1COc2ccccc2N1C(=O)c1cc(Cl)c(O)c(Cl)c1` [Example 24, 4-(3,5-dichloro-4-hydroxybenzoyl)-4H-benzo[1,4]oxazin-3-one] was greater than 50 µM.
Under `COC(=O)c1cccc2c1N(C(=O)c1cc(Cl)c(O)c(Cl)c1)CCO2` [Example 58, methyl 4-(3,5-dichloro-4-hydroxybenzoyl)-3,4-dihydro-2H-benzo[1,4]oxazine-5-carboxylate] stands 21 µM.
Regarding `Cc1cccc2c1OCCN2C(=O)c1cc(Cl)c(O)c(Cl)c1` [Example 15, (3,5-dichloro-4-hydroxyphenyl)-(8-methyl-2,3-dihydrobenzo[1,4]oxazin-4-yl)-methanone], the IC50 stood at 6 µM.
Under `O=C(c1cc(Cl)c(O)c(Cl)c1)N1CCOc2cccc(O)c21` [Example 89, (3,5-dichloro-4-hydroxyphenyl)-(5-hydroxy-2,3-dihydrobenzo[1,4]oxazin-4-yl)-methanone] stands 11 µM.
The value for `COC(=O)c1ccc(C(=O)N2CCOc3ccccc32)cc1` [Example 46, methyl 4-(2,3-dihydrobenzo[1,4]oxazine-4-carbonyl)benzoate] was greater than 50 µM; that for `O=C(c1cnc(O)c(Cl)c1)N1CCOc2ccccc21` [Example 29, (5-chloro-6-hydroxypyridin-3-yl)-(2,3-dihydrobenzo[1,4]oxazin-4-yl)-methanone] was greater than 50 µM.
The value for `O=C(c1ccc(Cl)c(O)c1)N1CCOc2ccccc21` [Example 41, (4-chloro-3-hydroxyphenyl)-(2,3-dihydrobenzo[1,4]oxazin-4-yl)-methanone] was greater than 50 µM; that for `O=C(c1cc(Cl)c(O)c(Cl)c1)N1CCOc2ccc(S(=O)(=O)N3CCCC3)cc21` [Example 33, (3,5-dichloro-4-hydroxyphenyl)-[6-(pyrrolidine-1-sulfonyl)-2,3-dihydrobenzo[1,4]oxazin-4-yl]-methanone] was 4 µM; that for `O=C(O)c1ccc2c(c1)OCCN2C(=O)c1cc(Cl)c(O)c(Cl)c1` [Example 60, 4-(3,5-dichloro-4-hydroxybenzoyl)-3,4-dihydro-2H-benzo[1,4]oxazine-7-carboxylic acid] was greater than 50 µM.
Take `CCNS(=O)(=O)c1ccc2c(c1)N(C(=O)c1cc(Cl)c(O)c(Cl)c1)CCO2` [Example 34, 4-(3,5-dichloro-4-hydroxybenzoyl)-3,4-dihydro-2H-benzo[1,4]oxazine-6-sulfonic acid ethylamide]: the IC50 was 11 µM.
Under `O=C(O)c1cccc(C(=O)N2CCOc3ccccc32)c1` [Example 49, 3-(2,3-dihydrobenzo[1,4]oxazine-4-carbonyl)benzoic acid] stands greater than 50 µM; under `CC(=O)N1CCN(C(=O)c2cc(Cl)c(O)c(Cl)c2)c2ccccc21` [Example 73, 1-[4-(3,5-dichloro-4-hydroxybenzoyl)-3,4-dihydro-2H-quinoxalin-1-yl]-ethanone], greater than 50 µM.
The value for `O=C(c1cc(Cl)c(O)c(Cl)c1)N1CCOc2cc(Cl)ccc21` [Example 52, (7-chloro-2,3-dihydrobenzo[1,4]oxazin-4-yl)-(3,5-dichloro-4-hydroxyphenyl)-methanone] was 11 µM.
Under `Nc1ccc2c(c1)CCN2C(=O)c1cc(Cl)c(O)c(Cl)c1` [Example 78, (5-amino-2,3-dihydroindol-1-yl)-(3,5-dichloro-4-hydroxyphenyl)-methanone] stands 18 µM.
